In patent publication US8440708B2, “Triazole-substituted arylamides as P2X3 and P2X2/3 antagonists” (Roche Palo Alto LLC, priority 2007, dated 2013):

Assays:
[1] = target: T1, rat P2X3 receptor (Rattus norvegicus, UniProt P49654); assay: P2X3/P2X2/3 FLIPR (Fluorometric Imaging Plate Reader) Assay, P2X3; format: cell-based; conditions: CHO-K1 cells transfected with rat P2X3; agonist α,β-meATP 1 μM; Table 1; read-out: P2X3 pKi (converted)
T1 construct: expressed in transfected cells; host or cells: CHO-K1
T1 sequence (P49654 1-397): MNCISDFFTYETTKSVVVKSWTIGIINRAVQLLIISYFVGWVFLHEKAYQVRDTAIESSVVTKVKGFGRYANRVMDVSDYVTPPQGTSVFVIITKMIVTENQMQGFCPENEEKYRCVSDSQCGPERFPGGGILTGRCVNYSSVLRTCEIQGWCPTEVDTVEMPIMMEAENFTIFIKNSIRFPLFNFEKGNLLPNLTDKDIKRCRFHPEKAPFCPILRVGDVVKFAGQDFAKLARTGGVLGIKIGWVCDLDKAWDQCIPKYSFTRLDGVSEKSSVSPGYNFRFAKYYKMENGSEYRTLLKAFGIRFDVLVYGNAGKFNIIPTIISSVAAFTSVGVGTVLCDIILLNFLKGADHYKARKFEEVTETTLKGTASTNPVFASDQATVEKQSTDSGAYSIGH
Procedure: (§1) P2X3/P2X2/3 FLIPR (Fluorometric Imaging Plate Reader) Assay
(§2) CHO-K1 cells were transfected with cloned rat P2X3 or human P2X2/3 receptor subunits and passaged in flasks. 18-24 hours before the FLIPR experiment, cells were released from their flasks, centrifuged, and resuspended in nutrient medium at 2.5×10^5 cells/ml. The cells were aliquoted into black-walled 96-well plates at a density of 50,000 cells/well and incubated overnight in 5% CO2 at 37° C. On the day of the experiment, cells were washed in FLIPR buffer (calcium- and magnesium-free Hank's balanced salt solution, 10 mM HEPES, 2 mM CaCl2, 2.5 mM probenecid; FB). Each well received 100 μl FB and 100 μl of the fluorescent dye Fluo-3 AM [2 μM final conc.]. After a 1 hour dye loading incubation at 37° C., the cells were washed 4 times with FB, and a final 75 μl/well FB was left in each well.
(§3) Test compounds (dissolved in DMSO at 10 mM and serially diluted with FB) or vehicle were added to each well (25 μl of a 4× solution) and allowed to equilibrate for 20 minutes at room temperature. The plates were then placed in the FLIPR and a baseline fluorescence measurement (excitation at 488 nm and emission at 510-570 nm) was obtained for 10 seconds before a 100 μl/well agonist or vehicle addition. The agonist was a 2× solution of α,β-meATP producing a final concentration of 1 μM (P2X3) or 5 μM (P2X2/3). Fluorescence was measured for an additional 2 minutes at 1 second intervals after agonist addition. A final addition of ionomycin (5 μM, final concentration) was made to each well of the FLIPR test plate to establish cell viability and maximum fluorescence of dye-bound cytosolic calcium. Peak fluorescence in response to the addition of α,β-meATP (in the absence and presence of test compounds) was measured and inhibition curves generated using nonlinear regression. PPADS, a standard P2X antagonist, was used as a positive control.

[2] = target: T2, human P2X2/3 receptor (Homo sapiens, UniProt P56373+Q9UBL9); assay: P2X3/P2X2/3 FLIPR (Fluorometric Imaging Plate Reader) Assay, P2X2/3; format: cell-based; conditions: CHO-K1 cells transfected with human P2X2/3; agonist α,β-meATP 5 μM; Table 1; read-out: P2X2/3 pKi (converted)
T2 construct: expressed in transfected cells; host or cells: CHO-K1
T2 sequence (Q9UBL9 1-471): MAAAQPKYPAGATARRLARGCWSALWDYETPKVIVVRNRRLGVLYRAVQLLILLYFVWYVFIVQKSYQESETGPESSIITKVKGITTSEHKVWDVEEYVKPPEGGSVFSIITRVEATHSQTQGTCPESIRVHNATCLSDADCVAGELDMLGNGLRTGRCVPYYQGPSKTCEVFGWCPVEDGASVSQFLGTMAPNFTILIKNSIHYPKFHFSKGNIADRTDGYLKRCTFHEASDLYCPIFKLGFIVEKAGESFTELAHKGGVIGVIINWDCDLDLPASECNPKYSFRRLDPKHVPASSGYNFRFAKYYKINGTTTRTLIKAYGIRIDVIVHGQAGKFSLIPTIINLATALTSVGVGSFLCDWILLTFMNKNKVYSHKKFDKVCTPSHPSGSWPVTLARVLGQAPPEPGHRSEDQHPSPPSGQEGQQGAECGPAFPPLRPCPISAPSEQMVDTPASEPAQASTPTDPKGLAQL
T2 sequence (P56373 1-397): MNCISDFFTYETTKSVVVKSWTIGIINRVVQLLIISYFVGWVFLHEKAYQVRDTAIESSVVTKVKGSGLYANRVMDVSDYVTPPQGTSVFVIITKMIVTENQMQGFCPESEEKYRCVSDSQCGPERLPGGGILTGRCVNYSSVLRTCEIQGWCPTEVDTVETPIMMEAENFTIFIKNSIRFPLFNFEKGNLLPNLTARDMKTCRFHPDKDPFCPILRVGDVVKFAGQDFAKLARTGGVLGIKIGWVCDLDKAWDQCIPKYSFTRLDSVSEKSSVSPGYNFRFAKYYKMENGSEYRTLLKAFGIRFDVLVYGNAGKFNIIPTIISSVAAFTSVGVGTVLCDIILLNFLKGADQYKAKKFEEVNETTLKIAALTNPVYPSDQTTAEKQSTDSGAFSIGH
Procedure: as §1, §2, §3

Row | SMILES | Ki [1] [nM] | Ki [2] [nM]
1 | CCn1nncc1-c1cc(C(=O)NC(C)c2cnccn2)cc(-c2ccc(C)cc2)c1 (stereo not drawn) [Compound 38, 5-(3-Ethyl-3H-[1,2,3]triazol-4-yl)-4′-methyl-biphenyl-3-carboxylic acid (1-pyrazin-2-yl-ethyl)-amide] | 9.77 | 550
2 | CCn1cc(-c2cc(C(=O)N[C@H](C)COC)cc(-c3ccc(C)cc3)c2)nn1 [Compound 39, 5-(1-Ethyl-1H-[1,2,3]triazol-4-yl)-4′-methyl-biphenyl-3-carboxylic acid ((R)-2-methoxy-1-methyl-ethyl)-amide] | 8510 | 10000
3 | CCn1cc(-c2cc(C(=O)N[C@@H](C)CO)cc(-c3ccc(C)cc3)c2)nn1 [Compound 40, 5-(1-Ethyl-1H-[1,2,3]triazol-4-yl)-4′-methyl-biphenyl-3-carboxylic acid ((S)-2-hydroxy-1-methyl-ethyl)-amide] | 10000 | 10000
4 | CCn1cc(-c2cc(C(=O)NC(C)c3cnccn3)cc(-c3ccc(C)cc3)c2)nn1 (stereo not drawn) [Compound 41, 5-(1-Ethyl-1H-[1,2,3]triazol-4-yl)-4′-methyl-biphenyl-3-carboxylic acid (1-pyrazin-2-yl-ethyl)-amide] | 182 | 7410
5 | CCn1cnnc1-c1cc(C(=O)NC(C)c2cnccn2)cc(-c2ccc(C)cc2)c1 (stereo not drawn) [Compound 43, 5-(4-Ethyl-4H-[1,2,4]triazol-3-yl)-4′-methyl-biphenyl-3-carboxylic acid (1-pyrazin-2-yl-ethyl)-amide] | 7.76 | 813
6 | CC(NC(=O)c1cc(-c2ccc(Cl)cc2)cc(-n2ncnc2N(C)C)c1)c1cnccn1 (stereo not drawn) [Compound 44, 4′-Chloro-5-(5-dimethylamino-[1,2,4]triazol-1-yl)-biphenyl-3-carboxylic acid (1-pyrazin-2-yl-ethyl)-amide] | 81.3 | 759
7 | COCc1ncnn1-c1cc(C(=O)N[C@@H](C)CO)cc(-c2ccc(C)cc2)c1 [Compound 45, 5-(5-Methoxymethyl-[1,2,4]triazol-1-yl)-4′-methyl-biphenyl-3-carboxylic acid ((S)-2-hydroxy-1-methyl-ethyl)-amide] | 12.9 | 3160
8 | COCc1ncnn1-c1cc(C(=O)NC(C)c2cnccn2)cc(-c2ccc(C)cc2)c1 (stereo not drawn) [Compound 46, 5-(5-Methoxymethyl-[1,2,4]triazol-1-yl)-4′-methyl-biphenyl-3-carboxylic acid (1-pyrazin-2-yl-ethyl)-amide] | 5.13 | 204
9 | COC(C)c1ncnn1-c1cc(C(=O)N[C@@H](C)CO)cc(-c2ccc(C)cc2)c1 (stereo partly drawn) [Compound 47, 5-[5-(1-Methoxy-ethyl)-[1,2,4]triazol-1-yl]-4′-methyl-biphenyl-3-carboxylic acid ((S)-2-hydroxy-1-methyl-ethyl)-amide] | 4.68 | 2040
10 | COC(C)c1ncnn1-c1cc(C(=O)NC(C)c2cnccn2)cc(-c2ccc(C)cc2)c1 (stereo not drawn) [Compound 48, 5-[5-(1-Methoxy-ethyl)-[1,2,4]triazol-1-yl]-4′-methyl-biphenyl-3-carboxylic acid (1-pyrazin-2-yl-ethyl)-amide] | 3.89 | 43.7
11 | Cc1ccc(-c2cc(C(=O)NC(C)c3cnccn3)cc(-n3ncnc3C(C)O)c2)cc1 (stereo not drawn) [Compound 49, 5-[5-(1-Hydroxy-ethyl)-[1,2,4]triazol-1-yl]-4′-methyl-biphenyl-3-carboxylic acid (1-pyrazin-2-yl-ethyl)-amide] | 5.13 | 282
12 | COc1ncnn1-c1cc(C(=O)NC(C)c2cnccn2)cc(-c2ccc(Cl)cc2)c1 (stereo not drawn) [Compound 50, 4′-Chloro-5-(5-methoxy-[1,2,4]triazol-1-yl)-biphenyl-3-carboxylic acid (1-pyrazin-2-yl-ethyl)-amide] | 26.9 | 537
13 | CC(NC(=O)c1cc(-c2ccc(Cl)cc2)cc(-n2cncn2)c1)c1cnccn1 (stereo not drawn) [Compound 51, 4′-Chloro-5-[1,2,4]triazol-1-yl-biphenyl-3-carboxylic acid (1-pyrazin-2-yl-ethyl)-amide] | 200 | 2950
14 | CC(C)Oc1ncnn1-c1cc(C(=O)NC(C)c2cnccn2)cc(-c2ccc(Cl)cc2)c1 (stereo not drawn) [Compound 52, 4′-Chloro-5-(5-isopropoxy-[1,2,4]triazol-1-yl)-biphenyl-3-carboxylic acid (1-pyrazin-2-yl-ethyl)-amide] | 14.1 | 891
15 | Cc1ccc(-c2cc(C(=O)NC(C)c3cnccn3)cc(-c3ncnn3C(C)C)c2)cc1 (stereo not drawn) [Compound 53, 5-(2-Isopropyl-2H-[1,2,4]triazol-3-yl)-4′-methyl-biphenyl-3-carboxylic acid (1-pyrazin-2-yl-ethyl)-amide] | 12.9 | 309
16 | Cc1ccc(-c2cc(C(=O)N[C@@H](C)CO)cc(-c3ncnn3C(C)C)c2)cc1 [Compound 54, 5-(2-Isopropyl-2H-[1,2,4]triazol-3-yl)-4′-methyl-biphenyl-3-carboxylic acid (2-hydroxy-1-methyl-ethyl)-amide] | 21.4 | 2450
17 | Cc1ccc(-c2cc(C(=O)N[C@@H](C)CO)cc(-n3ncnc3C(C)C)c2)nc1 [Compound 55, N-(2-Hydroxy-1-methyl-ethyl)-3-(5-isopropyl-[1,2,4]triazol-1-yl)-5-(5-methyl-pyridin-2-yl)-benzamide] | 5.37 | 457
18 | Cc1ccc(-c2cc(C(=O)NC(C)c3cnccn3)cc(-n3ncnc3C(C)C)c2)nc1 (stereo not drawn) [Compound 56, 3-(5-Isopropyl-[1,2,4]triazol-1-yl)-5-(5-methyl-pyridin-2-yl)-N-(1-pyrazin-2-yl-ethyl)-benzamide] | 4.57 | 42.7
19 | COC(C)c1ncnn1-c1cc(C(=O)N[C@@H](C)CO)cc(-c2ccc(C)cn2)c1 (stereo partly drawn) [Compound 57, N-(2-Hydroxy-1-methyl-ethyl)-3-[5-(1-methoxy-ethyl)-[1,2,4]triazol-1-yl]-5-(5-methyl-pyridin-2-yl)-benzamide] | 74.1 | 7940
20 | COC(C)c1ncnn1-c1cc(C(=O)NC(C)c2cnccn2)cc(-c2ccc(C)cn2)c1 (stereo not drawn) [Compound 58, 3-[5-(1-Methoxy-ethyl)-[1,2,4]triazol-1-yl]-5-(5-methyl-pyridin-2-yl)-N-(1-pyrazin-2-yl-ethyl)-benzamide] | 17 | 132
21 | Cc1ccc(-c2cc(C(=O)N[C@@H](C)CO)cc(-n3ncnc3C3CC3)c2)nc1 [Compound 59, 3-(5-Cyclopropyl-[1,2,4]triazol-1-yl)-N-(2-hydroxy-1-methyl-ethyl)-5-(5-methyl-pyridin-2-yl)-benzamide] | 77.6 | 6170
